Entries after “also recorded” stand apart in the source; their conditions may differ.
Assay: Ex vivo skin permeation experiment
Type: in vitro ADME
Details: human donor skin
Procedure: Human donor skin was placed between upper and lower compartments. The lower compartment was filled with receiver fluid. Various rapamycin compositions were applied on the surface of the skin facing the upper compartment (11 formulations (i.e., O3, NA21, NA22, NA21, NA17, TD201, NA19, NA25, AG14, NA26 and NA24), n=6 replicates, dosage 10 mg/cm^2) and left for 24 hrs. A positive displacement pipette was used to apply the formulation (˜10 mg/cm2) to the plunger of a 1 mL syringe. The formulation (10+/−0.5 mg) was applied to the skin surface and spread over the diffusion area using the plunger. Prior to and after the application the weight of the plunger was recorded, from which the dose per cell was calculated.
Following the time period, the excess rapamycin compositions were wiped from the skin surface and the skin layers were separated into stratum corneum, epidermis, and dermis. The Stratum corneum was removed from the human skin using a tape stripping procedure. The epidermis was separated from the dermis by dry heating at 60° C. for 2 min. Rapamycin was extracted from each layer by 90:10 v/v ethanol: water solvent mixture, and quantified. The receiver fluid in the lower compartment was also analyzed for the presence of rapamycin.

- rapamycin in the receiver fluid (10 mg/cm^2, any time point across the experimental period (24 hrs)): not detected
SMILES: CO[C@H]1C[C@@H]2CC[C@@H](C)[C@@](O)(O2)C(=O)C(=O)N2CCCC[C@H]2C(=O)O[C@H]([C@H](C)C[C@@H]2CC[C@@H](O)[C@H](OC)C2)CC(=O)[C@H](C)/C=C(\C)[C@@H](O)[C@@H](OC)C(=O)[C@H](C)C[C@H](C)/C=C/C=C/C=C/1C [rapamycin]
- distribution of rapamycin over skin surface, stratum corneum, epidermis and dermis (10 mg/cm^2, 24 hrs): greatest amount of rapamycin was found on the surface of the skin; also recorded: more of the drug residing in the epidermis than either the stratum corneum or dermal layer; also recorded: increase in the amount of rapamycin quantified in both the epidermis and dermis
